Reference: article PMC2680649 (International Journal of Molecular Sciences, 2009)
Where two headings read alike, the source gives them in different places.

Tests used:
[1] = system: human ERβ; parameters: method as in PMID 9751507; settings: cells transfected with human ERβ; cited from earlier work
[2] = target: T1, hER-α (Homo sapiens, UniProt P03372); test: cell-based; assay type: cell-based
T1 construct: expressed in transfected cells; host or cells: HELN (HeLa carrying a stably transfected estrogen-responsive luciferase reporter)
T1 sequence (P03372 whole entry): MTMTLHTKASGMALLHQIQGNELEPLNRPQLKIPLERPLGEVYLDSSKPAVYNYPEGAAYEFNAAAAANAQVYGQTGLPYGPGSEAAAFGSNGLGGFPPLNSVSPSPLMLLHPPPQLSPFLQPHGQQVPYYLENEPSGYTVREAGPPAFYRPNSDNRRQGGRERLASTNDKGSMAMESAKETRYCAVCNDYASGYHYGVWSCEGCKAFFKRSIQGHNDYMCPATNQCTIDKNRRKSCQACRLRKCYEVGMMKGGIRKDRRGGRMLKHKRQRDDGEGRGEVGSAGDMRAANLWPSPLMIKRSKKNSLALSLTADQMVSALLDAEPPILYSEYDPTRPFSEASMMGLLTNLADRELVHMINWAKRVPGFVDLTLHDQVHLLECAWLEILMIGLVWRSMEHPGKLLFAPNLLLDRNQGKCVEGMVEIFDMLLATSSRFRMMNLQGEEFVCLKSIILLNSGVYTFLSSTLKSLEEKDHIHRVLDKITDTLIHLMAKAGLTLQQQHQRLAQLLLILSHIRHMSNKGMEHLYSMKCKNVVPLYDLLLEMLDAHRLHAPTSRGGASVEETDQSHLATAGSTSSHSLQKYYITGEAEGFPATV

[3] = target: T2, hER-β (Homo sapiens, UniProt Q92731); test: cell-based; settings: read-out: EC50, half-maximal luciferase activity, transcriptional activation through ER β
T2 construct: expressed in transfected cells; host or cells: HELN (HeLa carrying a stably transfected estrogen-responsive luciferase reporter)
T2 sequence (Q92731 whole entry): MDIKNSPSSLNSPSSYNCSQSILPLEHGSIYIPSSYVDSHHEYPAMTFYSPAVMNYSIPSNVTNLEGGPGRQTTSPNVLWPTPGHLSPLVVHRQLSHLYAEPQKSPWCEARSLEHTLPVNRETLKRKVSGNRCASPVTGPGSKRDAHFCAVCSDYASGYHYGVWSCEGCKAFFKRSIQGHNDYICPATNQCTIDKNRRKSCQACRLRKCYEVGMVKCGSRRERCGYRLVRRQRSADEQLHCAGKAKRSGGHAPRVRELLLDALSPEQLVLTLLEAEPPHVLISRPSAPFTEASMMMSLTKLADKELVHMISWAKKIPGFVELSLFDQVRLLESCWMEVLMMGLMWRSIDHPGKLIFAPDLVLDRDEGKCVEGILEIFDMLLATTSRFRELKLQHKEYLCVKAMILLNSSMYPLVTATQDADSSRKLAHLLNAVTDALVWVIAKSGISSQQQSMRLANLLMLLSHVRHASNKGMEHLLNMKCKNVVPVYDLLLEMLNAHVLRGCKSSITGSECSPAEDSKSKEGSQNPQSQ

[4] = system: human ERα; parameters: method as in PMID 9751507; settings: cells transfected with human ERα; cited from earlier work
[5] = system: cytochrome P450; assay type: in vitro ADME, rat
[6] = ZEN incubation with rat liver cytosolic fraction; settings: rat liver cytosol, presence of NADPH
[7] = In vitro metabolism of zearalenone, pig liver microsomal preparation; assay type: in vitro ADME, pig (Yucatan); settings: Pig liver microsomes, 1 μM total P450, 50 μM ZEN, NADPH-generating system, pH 7.4, 30 min; n = 4
Excerpt: (§1) Monkeys (Cynomolgus, Macaca fascicularis), pig (Yucatan), dog (Beagle), rabbit (New Zealand), mouse (CD-1) and rat (Sprague Dawley) liver microsomes, rat 2C Supersomes® were purchased from Gentest (BD Biosciences, NJ, USA). Pools of human livers for female or male were purchased from Xenotech (Tebu-Bio, Le Perray en Yvelines, France). Human CYP Bactosomes® were provided by Cypex (Tebu-Bio, Le Perray en Yvelines, France).

[8] = In vitro metabolism of zearalenone, mouse liver microsomal preparation; assay type: in vitro ADME, mouse (CD-1); settings: Mouse liver microsomes, 1 μM total P450, 50 μM ZEN, NADPH-generating system, pH 7.4, 30 min; n = 4
Excerpt: as §1

[9] = In vitro metabolism of zearalenone, rat liver microsomal preparation; assay type: in vitro ADME, rat (Sprague Dawley); settings: Rat (untreated) liver microsomes, 1 μM total P450, 50 μM ZEN, NADPH-generating system, pH 7.4, 30 min; n = 4
Excerpt: as §1

[10] = In vitro metabolism of zearalenone, Cynomolgus monkey liver microsomal preparation; assay type: in vitro ADME, Macaca fascicularis; settings: Cynomolgus monkey liver microsomes, 1 μM total P450, 50 μM ZEN, NADPH-generating system, pH 7.4, 30 min; n = 4
Excerpt: as §1

[11] = In vitro metabolism of zearalenone, human female liver microsomal preparation; assay type: in vitro ADME; settings: Human Female liver microsomes, 1 μM total P450, 50 μM ZEN, NADPH-generating system, pH 7.4, 30 min; n = 4
Excerpt: as §1

[12] = In vitro metabolism of zearalenone, rabbit liver microsomal preparation; assay type: in vitro ADME, rabbit (New Zealand); settings: Rabbit liver microsomes, 1 μM total P450, 50 μM ZEN, NADPH-generating system, pH 7.4, 30 min; n = 4
Excerpt: as §1

[13] = In vitro metabolism of zearalenone, dog liver microsomal preparation; assay type: in vitro ADME, dog (Beagle); settings: Dog liver microsomes, 1 μM total P450, 50 μM ZEN, NADPH-generating system, pH 7.4, 30 min; n = 4
Excerpt: as §1

[14] = In vitro metabolism of zearalenone, human male liver microsomal preparation; assay type: in vitro ADME; settings: Human Male liver microsomes, 1 μM total P450, 50 μM ZEN, NADPH-generating system, pH 7.4, 30 min; n = 4
Excerpt: as §1

[15] = ZEN incubation with rat liver post-mitochondrial fraction (S9)
[16] = In vitro metabolism of zearalenone, PB-treated rat liver microsomal preparation; settings: PB-treated rat liver microsomes, 1 μM total P450, 50 μM ZEN, NADPH-generating system, pH 7.4, 30 min; n = 4

C[C@H]1CCCC(=O)CCC/C=C/c2cc(O)cc(O)c2C(=O)O1 [ZEN, (3S,11E)-3,4,5,6,9,10-Hexahydro-14,16-dihydroxy-3-methyl-1H-2-benzoxacyclotetradecin-1,7(8H)-dione]
agonist character for ERβ [1]: partial agonist | EC50 [2]: 11.8 ± 1.9 nM | EC50 [3]: 11.5 ± 2.5 nM | agonist character for ERα [4]: full agonist

[C-]#[O+] [carbon monoxide]
effect on formation of OH-ZEN ([5]; carbon monoxide): inhibited

CC(=O)N1CCN(c2ccc(OCC3COC(Cn4ccnc4)(c4ccc(Cl)cc4Cl)O3)cc2)CC1 (stereo not shown) [ketoconazole]
effect on formation of OH-ZEN [5]: inhibited

C[C@H]1CCC[C@H](O)CCC/C=C/c2cc(O)cc(O)c2C(=O)O1 [α-ZOL, α-zearalenol]
metabolite formed in cytosolic fraction [6]: formed | formation rate of ZEN metabolite [7]: 7.4 ± 0.6 nmoles/30 min/nmole P450 | formation rate of ZEN metabolite [8]: 41.3 ± 11.5 nmoles/30 min/nmole P450 | formation rate of ZEN metabolite [9]: 14.7 ± 2.5 nmoles/30 min/nmole P450 | formation rate of ZEN metabolite [10]: 4.0 ± 0.4 nmoles/30 min/nmole P450 | formation rate of ZEN metabolite [11]: 3.3 ± 0.5 nmoles/30 min/nmole P450 | formation rate of ZEN metabolite [12]: 2.5 ± 0.4 nmoles/30 min/nmole P450 | formation rate of ZEN metabolite [13]: 2.8 ± 0.3 nmoles/30 min/nmole P450 | formation rate of ZEN metabolite [14]: 3.6 ± 0.3 nmoles/30 min/nmole P450

C[C@H]1CCC[C@H](O)CCCCCc2cc(O)cc(O)c2C(=O)O1 [α–ZAL, α-zearalanol]
EC50 ([2]; read-out: EC50, half-maximal luciferase activity, transcriptional activation through ER α, HELN ER-α cells, 16 h at 37 °C, maximal activity with 10 nM E2): 0.49 ± 0.9 nM

β-zearalenol [β-ZOL]
metabolite found in post-mitochondrial incubation (fraction S9) [15]: in association with β-ZOL | formation rate of ZEN metabolite [16]: 3.3 ± 0.4 nmoles/30 min/nmole P450 | metabolite formed in cytosolic fraction [6]: formed | formation rate of ZEN metabolite [7]: 10.0 ± 1.8 nmoles/30 min/nmole P450 | formation rate of ZEN metabolite [11]: 0.3 ± 0.1 nmoles/30 min/nmole P450 | formation rate of ZEN metabolite [12]: 1.9 ± 0.4 nmoles/30 min/nmole P450
